Consider eleven compounds from patent US12427187B2, “Glucose-responsive insulin conjugates” (priority 2019, dated 2025).

Each structure is given as a SMILES string.

One experiment addresses T1, Human macrophage mannose receptor 1 (MRC1) (Homo sapiens, UniProt P22897).
T1 sequence (P22897 19-1456): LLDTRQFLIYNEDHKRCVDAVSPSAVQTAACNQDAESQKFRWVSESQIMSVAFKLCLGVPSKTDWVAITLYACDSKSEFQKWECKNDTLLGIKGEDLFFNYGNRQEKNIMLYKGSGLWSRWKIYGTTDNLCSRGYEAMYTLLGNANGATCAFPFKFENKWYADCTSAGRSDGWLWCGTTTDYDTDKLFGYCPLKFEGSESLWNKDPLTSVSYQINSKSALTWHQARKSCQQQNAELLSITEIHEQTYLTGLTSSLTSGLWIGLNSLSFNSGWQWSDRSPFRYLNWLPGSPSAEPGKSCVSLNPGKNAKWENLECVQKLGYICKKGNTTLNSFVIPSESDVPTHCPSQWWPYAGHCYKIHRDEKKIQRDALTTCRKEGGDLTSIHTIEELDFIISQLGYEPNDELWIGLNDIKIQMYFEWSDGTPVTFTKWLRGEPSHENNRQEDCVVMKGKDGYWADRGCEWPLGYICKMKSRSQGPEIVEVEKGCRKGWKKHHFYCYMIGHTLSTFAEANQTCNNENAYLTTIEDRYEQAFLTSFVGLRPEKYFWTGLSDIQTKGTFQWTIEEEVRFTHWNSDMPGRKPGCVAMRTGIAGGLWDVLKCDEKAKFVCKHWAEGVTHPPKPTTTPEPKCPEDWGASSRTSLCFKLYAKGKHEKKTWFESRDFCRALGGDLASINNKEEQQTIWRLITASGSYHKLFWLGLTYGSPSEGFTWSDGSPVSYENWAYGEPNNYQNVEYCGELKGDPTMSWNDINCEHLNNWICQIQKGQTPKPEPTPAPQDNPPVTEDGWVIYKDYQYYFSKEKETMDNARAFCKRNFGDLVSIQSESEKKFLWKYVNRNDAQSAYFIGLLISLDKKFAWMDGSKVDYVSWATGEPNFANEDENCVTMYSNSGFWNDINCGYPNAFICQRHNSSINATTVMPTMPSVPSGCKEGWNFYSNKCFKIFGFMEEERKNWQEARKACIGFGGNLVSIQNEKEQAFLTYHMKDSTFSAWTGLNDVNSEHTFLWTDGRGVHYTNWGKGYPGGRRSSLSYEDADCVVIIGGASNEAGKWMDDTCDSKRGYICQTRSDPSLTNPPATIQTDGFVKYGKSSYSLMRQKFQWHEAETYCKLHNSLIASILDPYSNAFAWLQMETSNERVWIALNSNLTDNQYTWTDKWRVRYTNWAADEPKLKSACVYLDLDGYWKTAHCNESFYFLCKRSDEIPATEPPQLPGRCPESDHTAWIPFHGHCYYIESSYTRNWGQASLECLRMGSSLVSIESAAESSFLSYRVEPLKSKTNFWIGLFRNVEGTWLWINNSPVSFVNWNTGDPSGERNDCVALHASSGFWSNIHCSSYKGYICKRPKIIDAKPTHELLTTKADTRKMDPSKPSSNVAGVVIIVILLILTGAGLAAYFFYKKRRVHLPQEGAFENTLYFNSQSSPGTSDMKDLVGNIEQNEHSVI
Description: MRC1 competition binding assay with Eu-mannosylated-BSA. The following applies: MRC1 Binding IP, Method F: 384-well plate; IP = inflection point.
The compound `CC(=O)[C@H](CCCCN)NC(=O)CCCCCNC(=O)[C@H](CCCCNC(=O)CCCCCNC(=O)CN(CC(=O)NCCO[C@@H]1O[C@@H](C)[C@@H](O)[C@@H](O)[C@@H]1O)CC(=O)NCCO[C@@H]1O[C@@H](C)[C@@H](O)[C@@H](O)[C@@H]1O)NC(=O)[C@H](CCCCNC(=O)CCCCCNC(=O)CN(CC(N)=O)CC(=O)NCCO[C@@H]1CC(C)[C@@H](O)[C@@H](O)[C@@H]1O)NC(=O)CCCCCNC(=O)CN(CC(=O)NCCO[C@@H]1O[C@@H](C)[C@@H](O)[C@@H](O)[C@@H]1O)CC(=O)NCCO[C@@H]1O[C@@H](C)[C@@H](O)[C@@H](O)[C@@H]1O` (some centres unmarked) [IOC-41] displayed an IC50 of 6.09 nM.

The experiment is the same for the next values; noted with them: Method E: 96-well plate; IP = inflection point; read-out: MRC1 Binding IP.
Regarding `CC(=O)[C@H](CCCCN)NC(=O)CCCCC(=O)N[C@@H](CCC(=O)NCCCCCC(=O)N(CCOC1O[C@H](CO)[C@@H](O)[C@H](O)[C@@H]1O)CCOC1O[C@H](CO)[C@@H](O)[C@H](O)[C@@H]1O)C(=O)N[C@@H](CCC(=O)NCCCCCC(=O)N(CCOC1O[C@H](CO)[C@@H](O)[C@H](O)[C@@H]1O)CCO[C@H]1O[C@H](CO)[C@@H](O)[C@H](O)[C@@H]1O)C(=O)N[C@@H](CC(C)C)C(=O)NCCCCCC(=O)N(CCOC1O[C@H](CO)[C@@H](O)[C@H](O)[C@@H]1O)CCOC1O[C@H](CO)[C@@H](O)[C@H](O)[C@@H]1O` (some centres unmarked) [IOC-49], the IC50 came to 54.5 nM.
Regarding `CC(=O)[C@H](CCCCN)NC(=O)CCCCC(=O)N[C@@H](CCC(=O)NCCO[C@H]1O[C@H](CO[C@H]2O[C@H](CO)[C@@H](O)[C@H](O)[C@@H]2O)[C@@H](O)[C@H](O[C@H]2O[C@H](CO)[C@@H](O)[C@H](O)[C@@H]2O)[C@@H]1O)C(=O)N[C@@H](CCC(=O)NCCO[C@H]1O[C@H](CO[C@H]2O[C@H](CO)[C@@H](O)[C@H](O)[C@@H]2O)[C@@H](O)[C@H](O[C@H]2O[C@H](CO)[C@@H](O)[C@H](O)[C@@H]2O)[C@@H]1O)C(=O)N[C@@H](CC(C)C)C(=O)NCCO[C@H]1O[C@H](CO[C@H]2O[C@H](CO)[C@@H](O)[C@H](O)[C@@H]2O)[C@@H](O)[C@H](O[C@H]2O[C@H](CO)[C@@H](O)[C@H](O)[C@@H]2O)[C@@H]1O` [IOC-4], the IC50 is 7.56 nM.
`CC(=O)[C@H](CCCCN)NC(=O)CCCCCNC(=O)[C@H](CCCCNC(=O)CCCCC(=O)NCCO[C@H]1O[C@H](CO[C@H]2O[C@H](CO)[C@@H](O)[C@H](O)[C@@H]2O)[C@@H](O)[C@H](O[C@H]2O[C@H](CO)[C@@H](O)[C@H](O)[C@@H]2O)[C@@H]1O)NC(=O)[C@H](CCCCNC(=O)CCCCC(=O)NCCO[C@H]1O[C@H](CO[C@H]2O[C@H](CO)[C@@H](O)[C@H](O)[C@@H]2O)[C@@H](O)[C@H](O[C@H]2O[C@H](CO)[C@@H](O)[C@H](O)[C@@H]2O)[C@@H]1O)NC(=O)CCCCC(=O)NCCO[C@H]1O[C@H](CO[C@H]2O[C@H](CO)[C@@H](O)[C@H](O)[C@@H]2O)[C@@H](O)[C@H](O[C@H]2O[C@H](CO)[C@@H](O)[C@H](O)[C@@H]2O)[C@@H]1O` [IOC-7]: the IC50 was 7.17 nM.
In the case of `CC(=O)[C@H](CCCCN)NC(=O)CCCCCNC(=O)[C@H](CCCCNC(=O)CCCCCNC(=O)CN(CC(=O)NCCO[C@H]1O[C@H](CO)[C@@H](O)[C@H](O)[C@@H]1O)CC(=O)NCCO[C@H]1O[C@H](CO[C@H]2O[C@H](CO)[C@@H](O)[C@H](O)[C@@H]2O)[C@@H](O)[C@H](O[C@H]2O[C@H](CO)[C@@H](O)[C@H](O)[C@@H]2O)[C@@H]1O)NC(=O)[C@H](CCCCNC(=O)CCCCCNC(=O)CN(CC(=O)NCCO[C@H]1O[C@H](CO)[C@@H](O)[C@H](O)[C@@H]1O)CC(=O)NCCO[C@H]1O[C@H](CO[C@H]2O[C@H](CO)[C@@H](O)[C@H](O)[C@@H]2O)[C@@H](O)[C@H](O[C@H]2O[C@H](CO)[C@@H](O)[C@H](O)[C@@H]2O)[C@@H]1O)NC(=O)CCCCCNC(=O)CN(CC(=O)NCCO[C@H]1O[C@H](CO)[C@@H](O)[C@H](O)[C@@H]1O)CC(=O)NCCO[C@H]1O[C@H](CO[C@H]2O[C@H](CO)[C@@H](O)[C@H](O)[C@@H]2O)[C@@H](O)[C@H](O[C@H]2O[C@H](CO)[C@@H](O)[C@H](O)[C@@H]2O)[C@@H]1O` [IOC-39], the IC50 is 2.38 nM.
Turning to `CC(=O)[C@H](CCCCN)NC(=O)CCCCC(=O)N[C@@H](CCC(=O)N[C@@H](CCC(=O)NCCO[C@@H]1O[C@@H](C)[C@@H](O)[C@@H](O)[C@@H]1O)C(=O)NCCO[C@@H]1O[C@@H](C)[C@@H](O)[C@@H](O)[C@@H]1O)C(=O)NCCO[C@H]1O[C@H](CO[C@H]2O[C@H](CO)[C@@H](O)[C@H](O)[C@@H]2O)[C@@H](O)[C@H](O[C@H]2O[C@H](CO)[C@@H](O)[C@H](O)[C@@H]2O)[C@@H]1O` [IOC-3], the IC50 was 42.2 nM.

The experiment is the same for the next values; noted with them: Method F: 384-well plate; IP = inflection point; read-out: MRC1 Binding IP.
Turning to `CC(=O)[C@H](CCCCN)NC(=O)CCCCC(=O)NCC(=O)N[C@@H](CCC(=O)N[C@@H](CCC(=O)NCCCCCC(=O)N(CCOC1O[C@H](CO)[C@@H](O)[C@H](O)[C@@H]1O)CCO[C@H]1O[C@H](CO)[C@@H](O)[C@H](O)[C@@H]1O)C(=O)NCCCCCC(=O)N(CCOC1O[C@H](CO)[C@@H](O)[C@H](O)[C@@H]1O)CCOC1O[C@H](CO)[C@@H](O)[C@H](O)[C@@H]1O)C(=O)NCCCCCC(=O)NCCO[C@H]1O[C@H](CO[C@H]2O[C@H](CO)[C@@H](O)[C@H](O)[C@@H]2O)[C@@H](O)[C@H](O[C@H]2O[C@H](CO)[C@@H](O)[C@H](O)[C@@H]2O)[C@@H]1O` (some centres unmarked) [IOC-34], the IC50 amounted to 7.93 nM.
On to `CC(=O)[C@H](CCCCN)NC(=O)CCCCCNC(=O)[C@H](CCCCNC(=O)[C@H](CCCCNC(=O)CCCCCNC(=O)CN(CC(=O)NCCO[C@H]1O[C@H](CO)[C@@H](O)[C@H](O)[C@@H]1O)CC(=O)NCCO[C@H]1O[C@H](CO)[C@@H](O)[C@H](O)[C@@H]1O)NC(=O)CN(CC(=O)NCCO[C@H]1O[C@H](CO)[C@@H](O)[C@H](O)[C@@H]1O)CC(=O)NCCO[C@H]1O[C@H](CO)[C@@H](O)[C@H](O)[C@@H]1O)NC(=O)CN(CC(=O)NCCO[C@@H]1O[C@@H](C)[C@@H](O)[C@@H](O)[C@@H]1O)CC(=O)NCCO[C@@H]1O[C@@H](C)[C@@H](O)[C@@H](O)[C@@H]1O` [IOC-46], for which the IC50 is 58.3 nM.
On to `CC(=O)[C@H](CCCCN)NC(=O)CCCCC(=O)NCC(=O)N[C@@H](CCC(=O)N[C@@H](CCC(=O)NCCCCCC(=O)N(CCOC1O[C@H](CO)[C@@H](O)[C@H](O)[C@@H]1O)CCO[C@H]1O[C@H](CO)[C@@H](O)[C@H](O)[C@@H]1O)C(=O)NCCCCCC(=O)N(CCOC1O[C@H](CO)[C@@H](O)[C@H](O)[C@@H]1O)CCOC1O[C@H](CO)[C@@H](O)[C@H](O)[C@@H]1O)C(=O)NCCCCCC(=O)NCCO[C@H]1O[C@H](CO[C@H]2O[C@H](CO)[C@@H](O)[C@H](O)[C@@H]2O)[C@@H](O)[C@H](O[C@H]2O[C@H](CO)[C@@H](O)[C@H](O)[C@@H]2O)[C@@H]1O` (some centres unmarked) [IOC-29], for which the IC50 was found to be 18.5 nM.
For the compound `CC(=O)[C@H](CCCCN)NC(=O)CCCCCNC(=O)[C@H](CCCCNC(=O)CCCCCNC(=O)CCCCCNC(=O)CN(CC(=O)NCCO[C@H]1O[C@H](CO)[C@@H](O)[C@H](O)[C@@H]1O)CC(=O)NCCO[C@H]1O[C@H](CO)[C@@H](O)[C@H](O)[C@@H]1O)NC(=O)[C@H](CCCCNC(=O)CCCCCNC(=O)CN(CC(=O)NCCO[C@H]1O[C@H](CO)[C@@H](O)[C@H](O)[C@@H]1O)CC(=O)NCCO[C@H]1O[C@H](CO)[C@@H](O)[C@H](O)[C@@H]1O)NC(=O)CCCCCNC(=O)CN(CC(=O)NCCO[C@H]1O[C@H](CO)[C@@H](O)[C@H](O)[C@@H]1O)CC(=O)NCCO[C@H]1O[C@H](CO)[C@@H](O)[C@H](O)[C@@H]1O` [IOC-52], the IC50 came out at 49.1 nM.
As to `CC(=O)[C@H](CCCCN)NC(=O)CCCCCNC(=O)[C@H](CCCCNC(=O)CCCCCNC(=O)CN(CC(=O)NCCO[C@H]1O[C@H](CO)[C@@H](O)[C@H](O)[C@@H]1O)CC(=O)NCCO[C@H]1O[C@H](CO)[C@@H](O)[C@H](O)[C@@H]1O)NC(=O)[C@H](CCCCNC(=O)CCCCCNC(=O)CN(CC(=O)NCCO[C@H]1O[C@H](CO)[C@@H](O)[C@H](O)[C@@H]1O)CC(=O)NCCO[C@H]1O[C@H](CO)[C@@H](O)[C@H](O)[C@@H]1O)NC(=O)CCCCCNC(=O)CN(CC(=O)NCCO[C@H]1O[C@H](CO)[C@@H](O)[C@H](O)[C@@H]1O)CC(=O)NCCO[C@H]1O[C@H](CO)[C@@H](O)[C@H](O)[C@@H]1O` [IOC-40], the IC50 was found to be 24.7 nM.
